Results from US20210284618A1, “FURANOCHALCONES AS INHIBITORS OF CYP1A1, CYP1A2 AND CYP1B1 FOR CANCER CHEMOPREVENTION” (Council of Scientific & Industrial Research, priority 2016, published 2021).
Values joined by “and” are separate entries in the source; they are usually repeats but may differ in a detail not shown here. Equal entries are not always repeated.

Legend:
[1] = target: T1, CYP1A1 (Homo sapiens, UniProt P04798); test: In-vitro CYP450 1A1 enzyme inhibition in Saccharosomes; assay type: biochemical
T1 construct: host or cells: yeast microsomes (Saccharosomes)
T1 sequence (P04798 1-512): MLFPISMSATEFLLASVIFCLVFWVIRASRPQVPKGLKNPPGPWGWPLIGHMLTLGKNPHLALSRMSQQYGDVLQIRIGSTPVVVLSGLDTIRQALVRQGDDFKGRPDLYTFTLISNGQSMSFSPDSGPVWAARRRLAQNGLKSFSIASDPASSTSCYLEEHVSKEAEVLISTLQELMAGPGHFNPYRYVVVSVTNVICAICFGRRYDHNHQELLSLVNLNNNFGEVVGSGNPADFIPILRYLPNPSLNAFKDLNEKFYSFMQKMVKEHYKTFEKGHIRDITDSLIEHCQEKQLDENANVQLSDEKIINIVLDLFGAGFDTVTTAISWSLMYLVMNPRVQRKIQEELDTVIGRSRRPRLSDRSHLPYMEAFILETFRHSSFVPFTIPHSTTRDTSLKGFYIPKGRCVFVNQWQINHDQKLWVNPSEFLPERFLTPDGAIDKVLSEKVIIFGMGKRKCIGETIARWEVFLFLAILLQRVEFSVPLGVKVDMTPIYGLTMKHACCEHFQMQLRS
Description: Example 23. In-vitro CYP450 1A1 enzyme inhibition in Saccharosomes™: The screening method utilizes 384-well microplates to rapidly ascertain relative percentage inhibition of CYP1A1 by a library of compounds. Each reaction was performed in black, clear-bottomed 384-well microplates. A reaction volume of 50 μl comprised of 0.5 pmol of the cytochrome P450 CYP1A1 (Saccharosomes), 5 μM of ethoxyresorufin substrate (which contributes 0.05% DMSO to the well), 10 μM of potential inhibitor test article (which contributes 0.5% DMSO to the well), A P450 reductase NADPH regenerating system (1.3 mM NADP+, 3.3 mM glucose-6-0.02 units phosphate and glucose-6-Phosphate dehydrogenase), potassium phosphate buffer (final well concentration 100 mM, pH 7.4) and water. Very small quantities of magnesium chloride and sodium citrate are added to the NADPH regenerating system, in line with standard published protocols. The potential inhibitor (test article) was pre-incubated with CYP1A1 of at least 20 minutes at 30° C. After this period, the remainder of the reagents required in the assay was added to initiate the process. The reaction mixture was incubated for another 20 minutes at 30° C. The reaction was stopped by adding an 80% acetonitrile, 20% 0.5 M Tris solution. The reactions were monitored using the Biotek Synergy HT plate reader by measuring the endpoint reaction at Excitation 530/(25 bandwidth) & Emission 590/(20 bandwidth) using a gain/sensitivity setting of 60. The mean of the quadruplicates of the negative control (solvent inactivated CYP1A1) was deducted from the mean of potential inhibitor (test article) samples. The percentage was then derived relative to the mean of the wells without inhibitor.
(§1) Example 25. IC50 determination for best compound against CYP1A1, CYP1B1 and other CYPs in Saccharosomes. Compounds were serially diluted to six different concentrations with 10% DMSO in a Sero-Well white microplate. The experiment was performed in a similar way as described above in examples 23 and 24.

[2] = target: T2, CYP2C18 (Homo sapiens, UniProt P33260); test: CYP2C18 inhibition in Saccharosomes; assay type: biochemical; settings: Saccharosomes containing CYP2C18
T2 construct: host or cells: yeast microsomes (Saccharosomes)
T2 sequence (P33260 26-490): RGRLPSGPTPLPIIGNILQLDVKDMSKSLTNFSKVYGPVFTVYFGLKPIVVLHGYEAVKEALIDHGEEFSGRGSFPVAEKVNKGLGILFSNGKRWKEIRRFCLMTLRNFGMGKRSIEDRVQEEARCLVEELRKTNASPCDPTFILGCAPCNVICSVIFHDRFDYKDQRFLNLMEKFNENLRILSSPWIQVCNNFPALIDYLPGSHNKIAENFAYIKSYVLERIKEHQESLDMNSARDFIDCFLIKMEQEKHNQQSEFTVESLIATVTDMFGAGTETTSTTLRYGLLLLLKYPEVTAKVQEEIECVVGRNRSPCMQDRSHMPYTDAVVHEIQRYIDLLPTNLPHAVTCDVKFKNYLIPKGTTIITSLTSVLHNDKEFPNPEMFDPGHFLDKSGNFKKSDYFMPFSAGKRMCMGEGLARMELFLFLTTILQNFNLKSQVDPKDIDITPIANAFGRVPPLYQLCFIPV

[3] = target: T3, CYP2D6 (Homo sapiens, UniProt P10635); test: CYP2D6 inhibition in Saccharosomes; assay type: biochemical
T3 construct: host or cells: yeast microsomes (Saccharosomes)
T3 sequence (P10635 whole entry): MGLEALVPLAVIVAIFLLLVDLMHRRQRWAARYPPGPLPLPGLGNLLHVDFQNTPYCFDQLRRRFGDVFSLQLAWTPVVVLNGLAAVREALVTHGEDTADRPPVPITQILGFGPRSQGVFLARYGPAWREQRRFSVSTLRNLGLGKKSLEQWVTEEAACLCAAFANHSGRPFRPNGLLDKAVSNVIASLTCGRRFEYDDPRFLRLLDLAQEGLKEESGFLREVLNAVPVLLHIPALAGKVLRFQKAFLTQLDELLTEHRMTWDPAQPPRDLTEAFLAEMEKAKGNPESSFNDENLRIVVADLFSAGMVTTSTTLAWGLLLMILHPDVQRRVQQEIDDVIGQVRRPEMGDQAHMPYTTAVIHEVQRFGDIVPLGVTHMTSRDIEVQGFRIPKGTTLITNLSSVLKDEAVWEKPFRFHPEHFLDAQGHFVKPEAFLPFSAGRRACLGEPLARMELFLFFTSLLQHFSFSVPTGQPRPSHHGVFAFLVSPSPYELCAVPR
Description: as §1

[4] = target: T1, CYP1A1; test: CYP1A1 inhibition in HEK293 cells transfected with pcDNA3.1/CYP1A1 (live cells); assay type: cell-based
Description: Example 26. In-vitro CYP450 inhibition in HEK293 cells transfected with pcDNA3.1/CYP1A1 against 5 μM EROD. […] The HEK293 cells used here was procured from ‘European Collection of Authenticated Cell Cultures’ (catalog number. ECACC 85120602).

[5] = target: T4, CYP1B1 (Homo sapiens, UniProt Q16678); test: CYP1B1 inhibition in live human cells (HEK293); assay type: cell-based
T4 sequence (Q16678 1-543): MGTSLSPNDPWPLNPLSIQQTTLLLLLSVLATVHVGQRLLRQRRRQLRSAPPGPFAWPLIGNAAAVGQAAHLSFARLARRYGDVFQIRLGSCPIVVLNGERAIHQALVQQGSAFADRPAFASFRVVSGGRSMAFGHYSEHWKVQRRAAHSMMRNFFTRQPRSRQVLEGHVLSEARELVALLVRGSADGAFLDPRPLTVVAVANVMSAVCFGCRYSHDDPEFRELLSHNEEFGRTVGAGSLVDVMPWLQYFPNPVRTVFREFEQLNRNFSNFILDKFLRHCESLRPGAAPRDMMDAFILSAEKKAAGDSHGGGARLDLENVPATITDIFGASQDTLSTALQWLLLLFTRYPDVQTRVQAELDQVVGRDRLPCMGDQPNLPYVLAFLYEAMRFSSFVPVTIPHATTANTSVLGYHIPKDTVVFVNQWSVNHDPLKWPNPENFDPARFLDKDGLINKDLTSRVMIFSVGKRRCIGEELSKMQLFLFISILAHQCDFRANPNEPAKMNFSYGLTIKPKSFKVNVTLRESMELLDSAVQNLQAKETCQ

- IC50 [1]: 342 nM
- % inhibition of CYP1A1 in Saccharosomes at 10 μM ([1]; 10 μM test compound, 5 μM ethoxyresorufin): 97% and 97.2%
- inhibition at 20 min, 10 μM ([1]; human, Saccharosomes containing CYP1A1, pH 7.4, probe ethoxyresorufin (5 μM), % inhibition of CYP1A1 in Saccharosomes at 10 μM, 10 μM test compound, 5 μM ethoxyresorufin): > 80%
- inhibition at 20 µM [2]: 63%
- IC50 [3]: 7000 nM
- inhibition at 20 µM ([3]; human, Saccharosomes containing CYP2D6, 20 μM): 84%
- IC50 [4]: 470 nM
- % inhibition of CYP1A1 in HEK293 cells at 10 μM ([4]; 10 μM, 5 μM EROD): 99.2%
- inhibition at 10 μM ([4]; human, HEK293 cells transfected with pcDNA3.1/CYP1A1 (live cells), probe EROD (5 μM), % inhibition of CYP1A1 in HEK293 cells at 10 μM, 10 μM, 5 μM EROD): > 80%
- IC50 [5]: 265 nM
SMILES: COc1c(C(=O)/C=C/c2cccnc2)c(O)c(OC)c2occc12 [Compound 8, 3-(4,7-dimethoxy-6-hydroxybenzofuran-5-yl)-1-(pyridin-3-yl)-3-oxopropene]
